Source: patent US8232278B2 (Gilead Sciences, Inc., priority 2005, dated 2012)
Read-outs that look alike come from different tables or passages of the source.

Assays:
[1] = CC50 assay in Huh-7 HCV replicon cells (CellTiter-Glo); type: cell-based, human; details: human, 50% cytostatic concentration
Experimental: (§1) The anti-HCV activity of the pyrido[3,2-d]pyrimidine derivatives of this invention was tested in a human hepatoma Huh-7 cell line harbouring a HCV replicon. The assay comprised the following steps:
(§2) Step 1: Compound Preparation and Serial Dilution
(§3) • 1. for water soluble pyrido[3,2-d]pyrimidine derivatives, a volume of 500 μL of solution in cell media (DMEM, 10% FBS, P/S, L-Glutamine) was prepared with a concentration being twice the concentration of the starting final serial dilution concentration. […] The rest of the plate, columns 2-12, was filled with 100 μL of cell media. The plate was then placed on a Precision 2000 Workstation to start the serial dilution. Compounds were diluted three times each step from column 1 to column 10. Column 11 was used as a blank control (no compound added). • 2. for pyrido[3,2-d]pyrimidine derivatives requiring DMSO to dissolve, serial dilution is performed in 50% DMSO in a 384-well plate. A solution containing a compound at 100-fold concentration of the starting final serial dilution concentration was prepared in 50% DMSO and added to the pre-specified wells in column 1 of a polypropylene 384-well plate. The plate was then placed on a Precision 2000 Workstation to start the serial dilution. After the serial dilution, a volume of 2 μL of the solution was transferred from the 384-well plate to a 96-well cell culture plate containing 100 μL of cell media on a Biomek FX Workstation. The DMSO concentration in the final assay condition was 0.5% after cells are added to the plate and the total volume in each well is brought to 200 μL. Step 2: to each well of the serial dilution plate prepared above, 100 μL of cell media containing 6000 suspended Huh-7 HCV replicon cells was added with a Multidrop workstation. The plates were incubated for 3 days at 37° C. with 5% CO2. Step 3: Detection: • a) for the EC50 assay, the media in a 96-well cell culture plate was aspirated with a Biotek EL405 plate-washer. A volume of 200 μL of a solution containing a 1:1 mixture of cell-lysis buffer (Promega, Luciferase Cell Culture Lysis 5× Reagent, cat. #E1531) and luciferase substrate solution (Promega, Luciferase Assay, cat. #E4550) was added to each well of the plate with Multidrop.
(§4) Results in table 7 are expressed by the following data: • the 50% effective concentration (EC50), i.e. the concentration that protects 50% of the cell monolayer from virus-induced cythopathic effect, and • the 50% cytostatic concentration (CC50), i.e. the concentration that results in 50% inhibition of cell growth. Table 7 further indicates the nature of substituents being present in positions 2, 4 and 6 of the pyrido[3,2-d]pyrimidine derivatives of the invention.

[2] = tested on: HCV replicon; test: Anti-HCV assay / replicon assay (EC50, luciferase read-out); type: cell-based, hepatitis C virus (HCV); details: for CC50/EC50: CC50/EC50 ratio (selectivity index)
Experimental: as §1, §2, §3, §4

[3] = tested on: Huh-7 HCV replicon cells; test: CC50 assay in Huh-7 HCV replicon cells (CellTiter-Glo); type: cell-based, human; details: 3 days, 50% cytostatic concentration
Experimental: as §1, §2, §3, §4

[4] = Hepatitis C virus, 72 h, human hepatoma Huh-7 cell line harbouring a HCV replicon, 3 days, luciferase luminescence, read-out: EC50
[5] = human hepatoma Huh-7 cell line harbouring a HCV replicon, 3 days, luciferase luminescence, read-out: EC50

| Compound | CC50 at 3 days [1] | CC50/EC50 [2] | EC50 [2, 4] | EC50 ([2]; Hepatitis C virus, Huh-7, 72 h) | CC50 [3] | EC50 [2, 5] |
| --- | --- | --- | --- | --- | --- | --- |
| COc1ccc(-c2ccc3nc(N)nc(N4CCCN(C(=O)Nc5cccc(C)c5)CC4)c3n2)cc1OC [Example 241, 2-amino-4-[(N-3-methylphenylcarbamoyl)-homopiperazin-1-yl]-6-(3,4-dimethoxyphenyl)-pyrido[3,2-d]pyrimidine] | 2400 nM | 218 | 11 nM |  |  |  |
| COc1ccc(-c2ccc3nc(N)nc(Nc4cccc(Br)c4)c3n2)cc1OC [Example 34, 2-amino-4-(3-bromo-anilino)-6-(3,4-dimethoxyphenyl)pyrido[3,2-d]-pyrimidine] | 7700 nM | 151 | 51 nM |  |  |  |
| COCCOc1nc(N)nc2ccc(-c3ccc(OC)c(OC)c3)nc12 [Example 471, 6-(3,4-dimethoxy-phenyl)-4-(2-methoxy-ethoxy)-pyrido[3,2-d]pyrimidin-2-ylamine] | 25100 nM | 66 |  | 380 nM |  |  |
| CC(=O)N1CCN(c2nc(N)nc3ccc(-c4ccc5c(c4)OCO5)nc23)CC1 [Example 184, 2-amino-4-[N-acetyl-piperazin-1-yl]-6-(3,4-methylenedioxyphenyl)-pyrido[3,2-d]pyrimidine] | 21800 nM | 128 | 170 nM |  |  |  |
| CCCOc1nc(N)nc2ccc(-c3ccccc3F)nc12 [Example 282, 2-amino-4-n-propoxy-6-(o-fluorophenyl)-pyrido[3,2-d]pyrimidine] |  | 89 | 560 nM |  | 50100 nM |  |
| Nc1nc(N2CCN(C(=O)COc3ccc(Cl)cc3)CC2)c2nc(-c3ccc(Cl)c(Cl)c3)ccc2n1 [Example 188, 2-amino-4-[N-(4-chlorophenoxy-acetyl)-piperazin-1-yl]-6-(3,4-dichlorophenyl)-pyrido[3,2-d]pyrimidine] |  | 211 |  |  | 12300 nM | 58 nM |
| Nc1nc(N2CCN(C(=O)COc3ccc(Cl)cc3)CC2)c2nc(-c3ccoc3)ccc2n1 [Example 381, 2-amino-4-[N-(4-chlorophenoxyacetyl)piperazin-1-yl]-6-(furan-3-yl)pyrido-[3,2-d]pyrimidine] |  | 149 |  |  | 9100 nM | 61 nM |
| COc1ccc(-c2ccc3nc(N)nc(N4CCN(C(=O)Nc5cccc(Cl)c5)CC4)c3n2)cc1OC [Example 63, 2-amino-4(N-3-chloro-phenyl-carbamoyl-piperazin-1-yl)-6-(3,4-dimethoxyphenyl)-pyrido[3,2-d]pyrimidine] |  | 106 |  |  | 700 nM | 7 nM |
| CS(=O)(=O)CCNc1nc(N)nc2ccc(-c3ccc(F)cc3)nc12 [Example 415, 2-amino-4-[(2-aminoethyl)methylsulfone]-6-(4-fluorophenyl)pyrido[3,2-d]pyrimidine] |  | 118 |  |  | 11700 nM | 99 nM |
| CCOc1nc(N)nc2ccc(-c3ccc(Cl)cc3)nc12 [Example 463, 6-(4-chloro-phenyl)-4-ethoxy-pyrido[3,2-d]pyrimidin-2-ylamine] |  | 98 |  | 511 nM | 50100 nM |  |
| COc1ccc(-c2ccc3nc(OCCOc4ccccc4)nc(N4CCN(C(=O)Nc5cccc(C)c5)CC4)c3n2)cc1OC [Example 19] |  | 52 |  |  | 25100 nM | 480 nM |
| 4-ethoxy-6-(3-fluoro-4-methoxy-phenyl)-pyrido[3,2-d]pyrimidin-2-ylamine [Example 459] |  | 78 |  |  | 25100 nM | 320 nM |
| CC(C)Sc1nc(N)nc2ccc(-c3ccc(F)cc3)nc12 [Example 394, 2-amino-4-thioisopropyl-6-(4-fluorophenyl)pyrido(3,2-d)pyrimidine] |  | 268 |  |  | 50100 nM | 187 nM |
| Nc1nc(N2CCS(=O)(=O)CC2)c2nc(-c3ccc(F)cc3)ccc2n1 [Example 406, 2-amino-4-(thiomorpholino-1,1-dioxide)-6-(4-fluorophenyl)pyrido[3,2-d]pyrimidine] |  | 1931 |  |  | 25100 nM | 13 nM |
| COc1cc(-c2ccc3nc(N)nc(N4CCN(C(=O)Nc5ccc(F)cc5)CC4)c3n2)ccc1OC(C)C [Example 106, 2-amino-4-[(N-4-fluoro-phenyl-carbamoyl)-piperazin-1-yl]-6-(4-isopropoxy-3-methoxy-phenyl)-pyrido[3,2-d]pyrimidine] |  | 102 |  |  | 3600 nM | 35 nM |
| Nc1nc(N2CCN(C(=O)COc3ccc(Cl)cc3)CC2)c2nc(-c3ccc(C(F)(F)F)cc3)ccc2n1 [Example 379, 2-amino-4-[N-(4-chlorophenoxyacetyl)piperazin-1-yl]-6-(4-trifluoromethylphenyl)-pyrido-[3,2-d]pyrimidine] |  | 287 |  |  | 21600 nM | 75 nM |
| Nc1nc(N2CCN(C(=O)COc3ccc(Cl)cc3)CC2)c2nc(-c3ccsc3)ccc2n1 [Example 382, 2-amino-4-[N-(4-chlorophenoxyacetyl)piperazin-1-yl]-6-(thiophen-3-yl)pyrido-[3,2-d]pyrimidine] |  | 1523 |  |  | 13100 nM | 9 nM |
| Cc1cccc(NC(=O)N2CCN(c3nc(N)nc4ccc(-c5ccc(Cl)c(Cl)c5)nc34)CC2)c1 [Example 191, 2-amino-4-[N-(3-methyl-phenyl-carbamoyl)-piperazin-1-yl]-6-(3,4-dichlorophenyl)-pyrido[3,2-d]pyrimidine] |  | 132 |  |  | 1200 nM | 9 nM |
| Nc1nc(N2CCOCC2)c2nc(-c3ccc4c(c3)OCO4)ccc2n1 [Example 180, 2-amino-4-morpholino-6-(3,4-(methylenedioxy)phenyl)pyrido[3,2-d]pyrimidine] |  | 167 |  |  | 25100 nM | 150 nM |
| 2-amino-4-(phenoxy-ethyl-piperazin-1-yl)-6-(3,4-dimethoxyphenyl)-pyrido[3,2-d]pyrimidine [Example 50] |  | 310 |  |  | 18000 nM | 58 nM |
| COc1ccc(-c2ccc3nc(N)nc(N4CCN(Cc5ccc6c(c5)OCO6)CC4)c3n2)cc1OC [Example 55, 2-amino-4-(1-piperonyl-piperazin-1-yl)-6-(3,4-dimethoxyphenyl)-pyrido[3,2-d]pyrimidine] |  | 74 |  |  | 25100 nM | 340 nM |
| COc1ccc(-c2ccc3nc(N)nc(N4CCN(Cc5ccccc5)CC4)c3n2)cc1OC [Example 57, 2-amino-4-(1-benzylpiperazin-1-yl)-6-(3,4-dimethoxyphenyl)-pyrido[3,2-d]pyrimidine] |  | 546 |  |  | 24600 nM | 45 nM |
| Nc1nc(N2CCN(C(=O)COc3ccc(Cl)cc3)CC2)c2nc(-c3ccc(F)cc3)ccc2n1 [Example 201, 2-amino-4-[(N-4-chloro-phenoxy-acetyl)-piperazin-1-yl]-6-(4-fluorophenyl)-pyrido[3,2-d]pyrimidine] |  | 558 |  |  | 25100 nM | 45 nM |
| COc1ccc(-c2ccc3nc(Nc4ccc(C)cc4)nc(N4CCN(C(=O)Nc5cccc(C)c5)CC4)c3n2)cc1OC [Example 94, 2-(p-tolylamino)-4-[(N-3-methylphenylcarbamoyl)-piperazin-1-yl]-6-(3,4-dimethoxy-phenyl)-pyrido[3,2-d]pyrimidine] |  | 339 |  |  | 25100 nM | 74 nM |
| 2-amino-4-[(N-3-chloro-phenyl-carbamoyl)-piperazin-1-yl]-6-(3-methyl-4-methoxy-phenyl)pyrido-[3,2-d]pyrimidine [Example 168] |  | 97 |  |  | 2600 nM | 27 nM |
| CCOc1nc(N)nc2ccc(-c3ccc(F)c(Cl)c3)nc12 [Example 462, 6-(3-chloro-4-fluoro-phenyl)-4-ethoxy-pyrido[3,2-d]pyrimidin-2-ylamine] |  | 117 |  | 428 nM | 50100 nM |  |
| CCSc1nc(N)nc2ccc(-c3ccc(F)cc3)nc12 [Example 393, 2-amino-4-thioethyl-6-(4-fluorophenyl)pyrido(3,2-d)pyrimidine] |  | 154 |  |  | 36000 nM | 234 nM |
